Measurements: patent publication US10774053B2, “HIV protease inhibitors” (Gilead Sciences, Inc., priority 2017, dated 2020)

Test system: HIV-1 (IIIB) in MT-4 cells
Assay: microbe, parasite or virus in culture
Assay type: cell-based
Settings: Human immunodeficiency virus 1, IIIB, MT4, MT-4 cells, HIV-1; read-out: MT4 EC50

Row | SMILES | EC50
1 | CC(C)(C)C[C@]1(c2ccc(-c3cnn(C4CC4)c3)c(Cl)c2)NC(=N)N([C@H](COC(=O)NC2(C(F)(F)F)CC2)c2ccc(Cl)c(-n3ncnc3C(F)F)c2)C1=O [Compound 316] | 13.3 nM
2 | CC(C)(C)C[C@]1(c2ccc(-c3cnn(C(F)F)c3)cc2)NC(=N)N([C@H](COC(=O)NC2(C)CC2)c2ccc(Cl)c(-c3ccccn3)c2)C1=O [Compound 47] | 60.9 nM
3 | [H]/N=C1\N[C@](CC(C)(C)C)(c2ccc(-c3cnn(C(F)F)c3)cc2)C(=O)N1[C@H](COC(=O)NC1CC1)c1ccc(Cl)c(-c2ncc[nH]2)c1 [Compound 16] | 11.4 nM
4 | CC1(NC(=O)OC[C@H](c2ccc(Cl)c(-n3cccn3)c2)N2C(=N)N[C@](CC(C)(C)C(F)(F)F)(c3ccc(-c4cnn(C(F)F)c4)cc3)C2=O)CC1 [Compound 323] | 50.7 nM
5 | CC(C)(C)C[C@]1(c2ccc(-c3ccc(C(F)F)nc3)cc2F)NC(=N)N([C@H](COC(=O)NC2(C(F)(F)F)CC2)c2ccc(Cl)c(-n3ncnc3C(F)F)c2)C1=O [Compound 279] | 23.5 nM
6 | CC(C)(C)C[C@]1(c2ccc(-c3cnn(C(F)F)c3)cc2)NC(=N)N([C@H](CO)c2ccc(Cl)c(-n3cncn3)c2)C1=O [Compound 246] | 84.3 nM
7 | C[C@H](NC(=O)OC[C@H](c1ccc(Cl)c(-n2ncnc2C(F)F)c1)N1C(=N)N[C@](CC(C)(C)C)(c2ccc(-c3cnn(C4CC4)c3)cc2F)C1=O)C(F)(F)F [Compound 315] | 9.97 nM
8 | CC(C)(C)C[C@]1(c2ccc(-c3cnn(C(F)F)c3)cc2)NC(=N)N([C@H](COC(=O)N2CC(C)(F)C2)c2ccc(Cl)c(-c3ncn[nH]3)c2)C1=O [Compound 76] | 34.8 nM
9 | CC(C)(C)C[C@]1(c2ccc(-c3cnn(C(F)F)c3)cc2)NC(=N)N([C@H](COC(=O)NC2CC2)c2ccc(Cl)c(-c3cn(C(F)F)cn3)c2)C1=O [Compound 36] | 89.3 nM
10 | CC(C)(C)C[C@]1(c2ccc3nc(C(F)F)ccc3c2)NC(=N)N([C@H](COC(=O)NC2(C(F)(F)F)CC2)c2ccc(Cl)c(-n3ncnc3C(F)F)c2)C1=O [Compound 354] | 5.06 nM
11 | CC(C)(C)C[C@]1(c2ccc(-c3cnn(C(F)F)c3)cc2F)NC(=N)N([C@H](COC(=O)NC(C)(C)C)c2ccc(Cl)c(-c3ncn[nH]3)c2)C1=O [Compound 114] | 40.6 nM
12 | CC(C)(C)C[C@]1(c2ccc(-c3cnn(C(F)F)c3)cc2)NC(=N)N([C@H](COC(=O)N2CC(F)(F)C2)c2ccc(Cl)c(-n3ncnc3C(F)F)c2)C1=O [Compound 184] | 9.93 nM
13 | CC(C)(C[C@]1(c2ccc(-c3cnn(C(F)F)c3)cc2)NC(=N)N([C@H](COC(=O)NC2(C(F)(F)F)CC2)c2ccc(Cl)c(-n3ncnc3C(F)F)c2)C1=O)C1CC1 [Compound 231] | 12.2 nM
14 | C[C@@H](CC#N)C[C@]1(c2ccc(-c3cnn(C(F)F)c3)cc2)NC(=N)N([C@H](COC(=O)NC2(C(F)(F)F)CC2)c2ccc(Cl)c(-n3ncnc3C(F)F)c2)C1=O (single isomer, unassigned) [Compound 346] | 31.9 nM
15 | CC(C)(C)C[C@]1(c2ccc(-c3cnn(C(F)F)c3)cc2)NC(=N)N([C@H](COC(=O)N2CC(S(C)(=O)=O)C2)c2ccc(Cl)c(-c3ncn[nH]3)c2)C1=O [Compound 84] | 1050 nM
16 | Cn1nnc(-c2ccc([C@@]3(CC(C)(C)C)NC(=N)N([C@H](COC(=O)NC4(C(F)(F)F)CC4)c4ccc(Cl)c(-n5ncnc5C(F)F)c4)C3=O)cc2)n1 [Compound 357] | 10.6 nM
17 | CC(C)(C)C[C@]1(c2ccc(-c3cnn(C(F)F)c3)cc2)NC(=N)N([C@H](COC(=O)NC(C)(C)C)c2ccc(Cl)c(-n3ncnc3C(F)F)c2)C1=O [Compound 183] | 12 nM
18 | CC(C)(C)C[C@]1(c2ccc(-n3cc(F)cn3)cc2)NC(=N)N([C@H](COC(=O)NC2(C(F)(F)F)CC2)c2ccc(Cl)c(-c3ncnn3C(F)F)c2)C1=O [Compound 138] | 11.5 nM
19 | CC(C)(C)C[C@]1(c2ccc(-c3cnn(C(F)F)c3)cc2)NC(=N)N([C@H](COC(=O)N2CCC2)c2ccc(Cl)c(-c3ncn[nH]3)c2)C1=O [Compound 86] | 35.4 nM
